Laboratory results: ChEMBL document CHEMBL1201862, “PubChem BioAssay data set” (2004)
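The compound was tested at five concentrations on cells cultured in 96-well plates, with a 48-hour exposure period. GI50: concentration for 50% inhibition of growth.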 The source made the active and inactive calls. Cut-off read from the data, not from the text of the source: active = GI50 up to about 1.1 µM and inactive = higher.

Assays:
Assay in all cases: NCI anticancer screen, dose series, 48 h
DMS-273 = system: DMS-273
LXFL 529 = system: LXFL 529
HOP-18 = system: HOP-18
DMS-114 = system: DMS-114
SNB-78 = system: SNB-78
M19-MEL = system: M19-MEL
XF498 = system: XF498
KM-20L2 = system: KM-20L2
RXF 631 = system: RXF 631

Compound | GI50 (DMS-273) | GI50 (LXFL 529) | GI50 (HOP-18) | GI50 (DMS-114) | GI50 (SNB-78) | GI50 (M19-MEL) | GI50 (XF498) | GI50 (KM-20L2) | GI50 (RXF 631)
N#Cc1c2nc3ccccc3nc2n2ccc3ccccc3c12 | > 100 µM (inactive) | > 100 µM (inactive) | > 100 µM (inactive) | > 100 µM (inactive) | > 100 µM (inactive) | > 100 µM (inactive) | – | – | –
COC(=O)C1=C(C(=O)OC)C2(OC(C)=O)c3ccccc3-c3ccccc3C12 (stereo not drawn) | 4.98 µM (inactive) | 1.7 µM (inactive) | 5.2 µM (inactive) | 5.37 µM (inactive) | 4.95 µM (inactive) | 4.56 µM (inactive) | 12.4 µM (inactive) | 6.15 µM (inactive) | –
CCCCN(CCCC)c1c([N+](=O)[O-])c(=O)nc2ccccn12 | – | 33 µM (inactive) | – | 21.7 µM (inactive) | 48.2 µM (inactive) | 8.67 µM (inactive) | 32.2 µM (inactive) | 27.4 µM (inactive) | 23.4 µM (inactive)
CC[C@H](C)[C@H]1NC(=O)C(C(C)=O)=C1O | > 100 µM (inactive) | 66.5 µM (inactive) | 58.1 µM (inactive) | 76.7 µM (inactive) | > 100 µM (inactive) | 71.3 µM (inactive) | > 100 µM (inactive) | > 100 µM (inactive) | 92.5 µM (inactive)
O=C(O)c1ccccc1/N=C/c1ccc(N(CCCl)CCCl)cc1 | 81.1 µM (inactive) | – | > 100 µM (inactive) | – | > 82.8 µM (inactive) | > 100 µM (inactive) | 0.01 µM (active) | > 100 µM (inactive) | –
CCOC(=O)C(=O)C(C#N)c1ccc(Cl)cc1 (stereo not drawn) | > 100 µM (inactive) | > 100 µM (inactive) | – | > 100 µM (inactive) | > 100 µM (inactive) | > 100 µM (inactive) | > 100 µM (inactive) | > 100 µM (inactive) | –
CC(=O)N/C(=C\c1cccc([N+](=O)[O-])c1)c1nc2ccc3c(c2[nH]1)C(=O)c1ccccc1C3=O | – | 29.3 µM (inactive) | – | > 37.5 µM (inactive) | > 57.9 µM (inactive) | > 100 µM (inactive) | 52.5 µM (inactive) | > 100 µM (inactive) | 32.6 µM (inactive)
CC1=C(CO)C(=O)OC(C(C)C2CCC3C4CC5OC56C(O)C(N5CC5)=CC(=O)C6(C)C4CCC23C)C1 (stereo not drawn) | 5.65 µM (inactive) | 4.32 µM (inactive) | – | 2.13 µM (inactive) | 5.61 µM (inactive) | 11.4 µM (inactive) | 5.3 µM (inactive) | 3.05 µM (inactive) | 11.5 µM (inactive)
NN | 132 µM (inactive) | – | 324 µM (inactive) | – | 1190 µM (inactive) | – | – | 231 µM (inactive) | –
CCOC(=O)NC(=O)c1c[nH]c(=O)[nH]c1=O | > 100 µM (inactive) | > 100 µM (inactive) | > 100 µM (inactive) | > 100 µM (inactive) | > 100 µM (inactive) | > 100 µM (inactive) | > 100 µM (inactive) | > 100 µM (inactive) | > 100 µM (inactive)
O=C(CC1(O)C(=O)Nc2c(Cl)cc(Cl)cc21)c1ccc2ccccc2c1 (stereo not drawn) | 3.72 µM (inactive) | 9.16 µM (inactive) | 13.3 µM (inactive) | 4.69 µM (inactive) | 16.8 µM (inactive) | 4.49 µM (inactive) | 11.6 µM (inactive) | 3.56 µM (inactive) | 7.08 µM (inactive)
CN(C)c1ccc(/C=c2\sc3nnc(Cc4ccccc4)n3c2=O)cc1 | 33.7 µM (inactive) | > 10 µM (inactive) | > 10 µM (inactive) | 17 µM (inactive) | > 10 µM (inactive) | > 100 µM (inactive) | > 10 µM (inactive) | > 10 µM (inactive) | –
COc1ccc(O)c(C#N)c1C#N.COc1ccc(OC)c(C#N)c1C#N | > 100 µM (inactive) | – | – | – | > 100 µM (inactive) | > 100 µM (inactive) | > 100 µM (inactive) | > 100 µM (inactive) | –
N#Cc1cccc(/C=N/N/C(N)=N/O)c1 | > 100 µM (inactive) | 39.4 µM (inactive) | 15.7 µM (inactive) | – | > 100 µM (inactive) | > 100 µM (inactive) | 23.8 µM (inactive) | – | –
CC(C)N(C(=O)c1cccc(C(=O)N(C(C)C)C(C)C)c1)C(C)C | > 100 µM (inactive) | > 100 µM (inactive) | > 100 µM (inactive) | > 100 µM (inactive) | > 100 µM (inactive) | > 100 µM (inactive) | > 100 µM (inactive) | > 100 µM (inactive) | > 100 µM (inactive)
Cc1ccc(-c2cc(-c3ccccc3)c(C#N)c(=O)n2C2OC(CO)C(O)C(O)C2O)cc1 (stereo not drawn) | > 100 µM (inactive) | > 100 µM (inactive) | > 100 µM (inactive) | > 100 µM (inactive) | > 100 µM (inactive) | > 100 µM (inactive) | – | > 100 µM (inactive) | > 100 µM (inactive)
CC(C)Cc1ccc(C(C)/C=C2\CCC(CN3CCCC3)C2=O)cc1 (stereo not drawn) | 4.5 µM (inactive) | 2.15 µM (inactive) | 19.2 µM (inactive) | 3.8 µM (inactive) | 19.4 µM (inactive) | 3.84 µM (inactive) | 8.73 µM (inactive) | 14.4 µM (inactive) | 20.2 µM (inactive)
COc1cc2ccc(CC#N)cc2cc1OC | > 100 µM (inactive) | > 100 µM (inactive) | – | > 100 µM (inactive) | > 100 µM (inactive) | > 100 µM (inactive) | > 100 µM (inactive) | > 100 µM (inactive) | > 100 µM (inactive)
Cc1cc(C)nc(NS(=O)(=O)c2ccc(NC(=O)c3ccc(Cl)c4c(Nc5ccc(S(=O)(=O)N=C(N)N)cc5)c5ccccc5nc34)cc2)n1 | 33.5 µM (inactive) | 44.3 µM (inactive) | > 100 µM (inactive) | 29.9 µM (inactive) | > 100 µM (inactive) | – | > 100 µM (inactive) | 50.2 µM (inactive) | –
CCOC(=O)C1(C)CCC(C(C(=O)O)C(=O)O)CC1=O (stereo not drawn) | > 100 µM (inactive) | > 100 µM (inactive) | > 100 µM (inactive) | > 100 µM (inactive) | > 100 µM (inactive) | > 100 µM (inactive) | – | > 100 µM (inactive) | > 100 µM (inactive)
CNC(=O)OCc1c(CO)nc(SC)n1C | > 100 µM (inactive) | – | > 100 µM (inactive) | > 100 µM (inactive) | – | > 100 µM (inactive) | > 100 µM (inactive) | > 100 µM (inactive) | –
CCC12CCCN(Cc3ccccc3)C1c1c(n(C)c3ccccc13)C(CO)C2 (stereo not drawn) | 46.5 µM (inactive) | 41 µM (inactive) | – | 37.8 µM (inactive) | – | 59 µM (inactive) | 43.3 µM (inactive) | 29.3 µM (inactive) | 56 µM (inactive)
O=C(Oc1ccc(Cl)cc1[N+](=O)[O-])c1ccccc1 | > 100 µM (inactive) | > 100 µM (inactive) | > 100 µM (inactive) | > 100 µM (inactive) | > 100 µM (inactive) | > 100 µM (inactive) | 0.0435 µM (active) | > 100 µM (inactive) | –
CC(C)=CC1C(C(=O)O)C1(C)C (stereo not drawn) [CHRYSANTHEMIC ACID] | > 750 µM (inactive) | – | 197 µM (inactive) | > 750 µM (inactive) | – | > 750 µM (inactive) | 50.6 µM (inactive) | > 750 µM (inactive) | –
C/C(=N\N)C(CN(C)C)C(c1ccccc1)c1c(O)c2ccccc2oc1=O (stereo not drawn) | > 100 µM (inactive) | > 100 µM (inactive) | > 100 µM (inactive) | 51.9 µM (inactive) | > 100 µM (inactive) | 95.7 µM (inactive) | 36.4 µM (inactive) | > 100 µM (inactive) | > 100 µM (inactive)
COc1ccc2c(c1)CC1c3c(ccc(OC)c3O)CC2N1C (stereo not drawn) | 22.4 µM (inactive) | 18.3 µM (inactive) | 71.1 µM (inactive) | 19.7 µM (inactive) | 24.3 µM (inactive) | 23 µM (inactive) | 21.3 µM (inactive) | 28.4 µM (inactive) | 22.6 µM (inactive)
